{"source": "patent US12565680B2", "about": "“Cancer neoantigens and their utilities in cancer vaccines and TCR-based cancer immunotherapy” (THE METHODIST HOSPITAL SYSTEM, priority 2018, dated 2026)", "format_in_all_cases": "cell-based, human", "key": {"[1]": {"system": "CD4^+ T cells isolated from 136TIL", "test": "T-cell reactivity assay (IFN-γ ELISA): TMGs/minigenes in 293IMDR1/DP4 and 293IMDR11/DP4 cells", "details": "293IMDR1/DP4 cells", "excerpt": "Using several different approaches (293-engineered APCs and B cells, as well as different libraries) and tumor-reactive T cells (TIL lines and clones), 6 MHC-II antigens (4 mutation-derived neoantigens and 2 derived from alternative ORF and 3′ UTR region) were identified and 3 MHC-I neoantigens in 135 mel tumor cells. It appears that the number of neoantigens recognized by T cells is rather limited, even though there are 232 somatic mutations (Table 3). To extend the findings, exome sequencing of genomic DNAs isolated from the second patient tumor (136 mel) and 136TIL cells (as a control) was performed and identified 348 somatic mutations that were unique to 136 tumor cells (FIG. 8A) (Table 4). A library was designed and constructed containing 35 TMGs (10 mutations in each TMG) in pTSX targeting expression vector based on somatic mutations. […] By contrast, no appreciable T cell activity was observed against the corresponding WT counterparts (FIG. 8C). Because ANKIB1 can be presented by both 293IMDR1/DP4 and 293IMDR11/DP4 cells (FIG. 8B), it is likely that ANKIB1 is presented by HLA-DP4 molecules for T cell recognition.\n(§1) 96-well tissue culture plates were coated with phosphate-buffered saline (PBS, GenDEPOT) containing 50 μg/ml poly-L-lysine (Millipore Sigma) at 37° C. 10 min later, the plates were rinsed twice with PBS. Tumor cells or 293-APCs were seeded at 5×10^4/well in the 96-well plate and cultured at 37° C., 5% CO2 for at least 4 h. For plasmid transfection, 250 ng of plasmid DNA were transfected into 293-APCs per well with 0.5 μl of Lipofectamine 2000 (Thermo Fisher Scientific) according to the manufacturer's instructions and incubated at 37° C., in 5% CO2 overnight. For peptide presentation, synthesized peptides (GeneScript) were added to each well at different final concentrations from 10^2 to 10^−4 μM and incubated at 37° C., 5% CO2. The cells transfected with plasmids or pulsed with peptides were washed with TCM twice, and then cocultured with T cells (1×10^5/well). After overnight culture, 50 μl of supernatant was collected for measuring cytokine release with an ELISA assay.\n96-well microplate (Greiner Bio-one) was coated with 50 μl of PBS containing anti-human IFN-γ (Thermo Fisher Scientific, primary antibody, 1 μg/ml) per well and incubated at 4° C. overnight. […] The plate was read at OD450 nm. The concentration of IFN-γ was calculated by standard reading.\nThe screening of antigen-specific T cells against TMGs were performed as described in T-cell reactivity assay above. […] The transfected cells were cocultured with tumor-reactive T cells overnight and the IFN-γ release in the supernatant in each well was determined by ELISA on the second day."}, "[2]": {"system": "CD4^+136-C13 and 136-C22 T cell clones", "test": "TMG/minigene screening with T cell clones of 136TIL", "details": "293IMDR1/DP4 cells", "description": "As shown in 135 mel, ADIPOR2 and LAGE1b were identified as tumor antigens recognized by T cell clones that were in relatively low abundance in the bulk TIL population. Thus, T cell clones generated from 136TILs were tested for their ability to recognize the newly identified as well as unknown neoantigens. 293IMDR1/DP4 and 293IMDR11/DP4 cells were transfected with 35 TMGs, respectively, followed by co-culturing with T cells clones for overnight."}, "136TIL": {"system": "136TIL", "test": "Intracellular staining of IFN-γ after neoantigen peptide stimulation, 136TIL", "details": "for neoantigen-specific CD4^+ T cells in the total T cell population: fibroblasts loaded with peptide", "excerpt": "Among them, MAPK9 and ANKIB1 neoantigen-specific CD4^+ T cells accounted for 14.3% and 5.2% in the total T cell population, which accounted for 58% and 21% in the total tumor-reactive CD4^+ T cell population, respectively (FIG. 11B). By contrast, other neoantigen-specific CD4^+ T cells accounted for only a small percentage of T cells in the total T cell population (FIG. 11A). Since HHAT is only one MHC-I neoantigen, it was shown that HHAT neoantigen-specific CD8^+ T cells accounted for 10.6% in the total T cell population when stimulation with HHAT peptide (FIG. 11A), which accounted for 73% in the total tumor-reactive CD8^+ T cell population (FIG. 11B).\n(§2) T cells were stimulated by various in vitro methods, such as tumor cells, peptides or DNA encoding neoantigens, etc. and induced to release cytokines. Stimulated T cells were resuspended in 100 μl of Cytofix/Cytoperm solution (BD Biosciences) per well for microwell plates (or 250 μl for tubes) and incubated for 20 min at 4° C. for cell fixation. Fixed cells were permeabilized by washing twice in 1× Perm/Wash buffer (BD Biosciences). Then the fixed/permeabilized cells were thoroughly resuspended in 50 μl of 1× Perm/Wash buffer containing 1 μl of phycoerythrin (PE)-conjugated IFN-γ antibody (Thermo Fisher Scientific) and incubate at 4° C. for 30 min in the dark. After that the cells were washed twice with 1× Perm/Wash buffer and ready for flow cytometric analysis."}, "135TIL": {"system": "135TIL", "test": "Intracellular staining of IFN-γ after neoantigen peptide stimulation, 135TIL", "details": "intracellular cytokine staining", "description": "as §2"}, "T-cell clones of 135TIL": {"system": "T-cell clones of 135TIL", "test": "IFN-γ ELISA with tumor-reactive T-cell clones of 135TIL", "details": "for percentage of CD8^+ tumor-reactive T-cell clones recognizing the neoantigen: 40 clones; for number of CD8^+ tumor-reactive T-cell clones recognizing the neoantigen: of 40 clones", "excerpt": "Thus, immunogenic antigens can be generated from various sources or mechanisms [such as alternative ORFs, noncoding regions (3′ and 5′ UTRs, introns, noncoding RNA)]. […] All other tumor-reactive CD4^+ T-cell clones and CD8^+ T-cell clones recognized the mutation-derived neoantigens. […] To identify these two antigens recognized by these two CD4^+ T-cell clones, an Ii-fusion cDNA library derived from 135 mel tumor cells was constructed using experimental procedures. The Ii-fusion cDNA library pools (approximately 100 cDNA clones per pool) were transfected into 293IMDR3/DP4 or 293IMDR4/DP4 cells, followed by co-culturing with CD4^+ T-cell clones (135-1C1 or 135-1E1). After 2×10^5 cDNA clones, positive cDNA library pools that stimulate two T-cell clones, respectively, were identified based on IFN-γ release by ELISA (FIG. 6B). The positive pools were then transformed into Stbl3™ Escherichia coli, and single bacteria colonies were picked for plasmid DNA isolation. The screening assays were repeated in the same APCs transfected with the single cDNA-containing plasmids, and identified three clones that were able to stimulate 135-1C1 T cells, and two clones that reacted with 135-1E1 T cells (FIG. 6C). […] The 135-1E1 T cell-reactive cDNA clones encoded the product translated from an alternative reading frame of CTAG2 (LAGE1b) (FIG. 6C and FIG. 7A). […] LAGE1 is a cancer-testis antigen, with over 80% amino acid sequence identical to NY-ESO-1 protein, which is the most immunogenic tumor antigen identified to date. To define the T cell epitopes, wee generated a series of deletions and truncations of 3′ UTR region of ADIPOR2 gene, and narrowed down T cell epitope to a 26 aa peptide-coding sequence that stimulate 135-1C1 T cell response (FIG. 7D). Using similar approach, T cell epitopes were narrowed down to a 69 aa peptide-coding sequence of the LAGE1b alternative ORF2 for 135-1E1 T-cell recognition (FIG. 7E).\nUsing systemic and multiple approaches, 8 cancer neoantigens were identified in 135 mel and 7 neoantigens in 136 mel. To understand the potential mechanisms that restrain the number of neoantigens that could induce T cell response, it was asked whether these neoantigens were equally recognized by T cells.\nT-cell cloning and expansion were performed. Briefly, T-cell clones from 135TILs were generated by a limited dilution (0.3 cell/well) in 96-well plates. Allogeneic PBMCs from normal donors were irradiated (60 Gy) and then seeded as feeder cells (7×10^4/well) in TCM containing 35 ng/ml OKT3 (anti-hCD3 antibody) (R&D Systems) and 35 ng/ml anti-hCD28 antibody (R&D Systems). On day 1, recombinant IL-2 was added to the final concentration of 300 IU/ml. On day 5, half of the culture medium was replaced with fresh TCM containing recombinant IL-2, and then the medium was changed every other day or when the medium color turned yellow. On day 14, T-cell clones were harvested, counted, tested for tumor reactivity. Tumor reactive T-cell clones were further expanded.\nas §1, with “assay. […]” for “assay.”"}}}
{"sequence": "KDAARPAYWVPDYEILHCHNCRKEF [ZFYVE1, MHC-II neoantigen of patient #136]", "values": [{"measurement": "T cell recognition, IFN-γ release by CD4^+ 136TIL", "setting": "[1]", "result": "capable of stimulating CD4^+ T cells for IFN-γ release"}]}
{"sequence": "LLLAGYLAQQYLLLPTPKVIGIDLG [HSPA13, MHC-II neoantigen of patient #136 recognized by clone C22]", "values": [{"measurement": "recognition by T cell clones 136-C13 (TMG13) and 136-C22 (TMG8)", "setting": "[2]", "result": "MHC-II neoantigens"}]}
{"sequence": "LLKTRRILKCSYLYGFFLEPKSTKK [ANKIB1, MHC-II neoantigen of patient #136]", "values": [{"measurement": "share in the total tumor-reactive CD4^+ T cell population", "setting": "136TIL", "result": 21, "unit": "%"}, {"measurement": "neoantigen-specific CD4^+ T cells in the total T cell population", "setting": "136TIL", "result": 5.2, "unit": "%"}, {"measurement": "T cell recognition, IFN-γ release by CD4^+ 136TIL", "setting": "[1]", "result": "capable of stimulating CD4^+ T cells for IFN-γ release"}]}
{"sequence": "GSGEKVAGRVIVKVCEVTRVKAVRI [TXNIP, MHC-I neoantigen of patient #135]", "values": [{"measurement": "CD8^+ T cells recognizing the neoantigen in the total T cell population", "setting": "135TIL", "result": 2.95, "unit": "%"}, {"measurement": "percentage of CD8^+ tumor-reactive T-cell clones recognizing the neoantigen", "setting": "T-cell clones of 135TIL", "result": 20, "unit": "%"}, {"measurement": "number of CD8^+ tumor-reactive T-cell clones recognizing the neoantigen", "setting": "T-cell clones of 135TIL", "result": 8}]}
{"sequence": "RLKASLDRPFTNSESAFYSIVGLSS [RPN2, MHC-I neoantigen of patient #135]", "values": [{"measurement": "CD8^+ T cells recognizing the neoantigen in the total T cell population", "setting": "135TIL", "result": 1.54, "unit": "%"}, {"measurement": "percentage of CD8^+ tumor-reactive T-cell clones recognizing the neoantigen", "setting": "T-cell clones of 135TIL", "result": 12.5, "unit": "%"}, {"measurement": "number of CD8^+ tumor-reactive T-cell clones recognizing the neoantigen", "setting": "T-cell clones of 135TIL", "result": 5}]}
{"sequence": "PFYLGHTIKSGDFEYVGMEGGIVLS [C1GALT1C1, MHC-II neoantigen of patient #136 recognized by clone C13]", "values": [{"measurement": "recognition by T cell clones 136-C13 (TMG13) and 136-C22 (TMG8)", "setting": "[2]", "result": "MHC-II neoantigens"}]}
{"sequence": "YPGIKFEELFPDCIFPSESERDKIK [MAPK9, MHC-II neoantigen of patient #136]", "values": [{"measurement": "share in the total tumor-reactive CD4^+ T cell population", "setting": "136TIL", "result": 58, "unit": "%"}, {"measurement": "neoantigen-specific CD4^+ T cells in the total T cell population", "setting": "136TIL", "result": 14.3, "unit": "%"}, {"measurement": "T cell recognition, IFN-γ release by CD4^+ 136TIL", "setting": "[1]", "result": "capable of stimulating CD4^+ T cells for IFN-γ release"}]}
{"sequence": "SMPLWDFQGSTMRTSQYVRLTPDER [LMAN2, MHC-II neoantigen of patient #136]", "values": [{"measurement": "T cell recognition, IFN-γ release by CD4^+ 136TIL", "setting": "[1]", "result": "capable of stimulating CD4^+ T cells for IFN-γ release"}]}
